Measured values published in patent publication EP1501514B1, “PROTEIN KINASE MODULATORS AND METHODS OF USE” (Exelixis, Inc., priority 2002, dated 2003).

target: T1, Chk1 (Homo sapiens, UniProt O14757); test: Chk1 assay: incorporation of γ-33P ATP into immobilized myelin basic protein; type: biochemical; details: Table 11; Chk1 only
T1 construct: purchased Upstate Biotechnology
T1 sequence (O14757 1-476): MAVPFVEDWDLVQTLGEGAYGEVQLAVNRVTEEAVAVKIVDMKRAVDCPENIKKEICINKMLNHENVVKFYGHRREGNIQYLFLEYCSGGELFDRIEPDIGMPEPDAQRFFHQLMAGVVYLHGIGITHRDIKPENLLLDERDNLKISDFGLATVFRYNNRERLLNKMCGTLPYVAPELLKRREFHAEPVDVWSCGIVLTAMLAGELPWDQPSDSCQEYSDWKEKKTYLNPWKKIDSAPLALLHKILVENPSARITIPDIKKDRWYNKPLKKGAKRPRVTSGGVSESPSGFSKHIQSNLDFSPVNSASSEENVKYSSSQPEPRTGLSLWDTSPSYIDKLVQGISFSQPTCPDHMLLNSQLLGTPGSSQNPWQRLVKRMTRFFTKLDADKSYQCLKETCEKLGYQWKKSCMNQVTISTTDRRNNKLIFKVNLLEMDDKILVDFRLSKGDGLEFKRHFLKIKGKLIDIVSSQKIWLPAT
Protocol: Chk1 and Chk2 assays were performed by measuring incorporation of γ-^33P ATP into immobilized myelin basic protein (MBP). High binding white 384 well plates (Greiner) were coated with MBP (Sigma #M-1891) by incubation of 60ul/well of 20µg/ml MBP in Tris-buffered saline (TBS; 50mM Tris pH 8.0, 138mM NaCl, 2.7mM KCl) for 24 hours at 4° C. Plates were washed 3X with 100µl TBS. Kinase reactions were carried out in a total volume of 34µl in kinase buffer (5mM Hepes pH 7.6, 15mM NaCl, 0.01% bovine gamma globulin (Sigma #I-5506), 10mM MgCl2, 1mM DTT, 0.02% TritonX-100). Compound dilutions were performed in DMSO and added to assay wells to a final DMSO concentration of 1%. Each data point was measured in duplicate, and at least two duplicate assays were performed for each individual compound determination. Chkl and Chk2 enzymes (Upstate Biotechnology) were added to final concentrations of 10nM (Chkl) or 20nM (Chk2). A mixture of unlabeled ATP and γ-^33P ATP was added to start the reaction (2x10^6 cpm of γ-^33P ATP per well (3000Ci/mmole) and either 10µM or 30µM unlabeled ATP (for Chkl and Chk2 assays respectively). The reaction was carried out for 1 hour at room temperature with shaking. Plates were washed 7x with TBS, followed by the addition of 50µl/well scintillation fluid (Wallac). Plates were read using a Wallac Trilux counter. This is only one format of such assays, various other formats are possible, as known to those skilled in the art.
The above assay procedure can be used to determine the IC50 for inhibition and/or the inhibition constant Ki. The IC50 is defined as the concentration of compound required to reduce the enzyme activity by 50% under the conditions of the assay. […] The Ki for a compound may be determined from the IC50 based on three assumptions. First, only one compound molecule binds to the enzyme and there is no cooperativity. […] Third, the enzymatic rate of the enzyme-inhibitor complex is zero. The rate (i.e., compound concentration) data are fitted to the equation: V = Vmax E0 [I-((E0+I0+Kd)-sqrt(((E0+I0+Kd))^2 -4E0 I0))/(2E0)] [formula]

| Structure (SMILES) | IC50 |
| --- | --- |
| Nc1ncc(-c2ccccc2)nc1C(=O)NCCc1ccccc1 [compound 1, 3-amino-6-phenyl-N-(2-phenylethyl)pyrazine-2-carboxamide] | > 10 µM |
| Nc1ncc(-c2ccccc2)nc1C(=O)NCc1ccccc1 [compound 2, 3-amino-6-phenyl-N-(phenylmethyl)pyrazine-2-carboxamide] | > 10 µM |
| NC(=O)c1nc(-c2cccc(Cl)c2)cnc1N [compound 3, 3-amino-6-(3-chlorophenyl)pyrazine-2-carboxamide] | > 10 µM |
| Nc1ncc(-c2ccccc2)nc1C(=O)N[C@@H]1CCc2ccccc21 [compound 4, 3-amino-N-[(1R)-2,3-dihydro-1H-inden-1-yl]-6-phenylpyrazine-2-carboxamide] | > 10 µM |
| Nc1ncc(-c2ccccc2)nc1C(=O)NC1Cc2ccccc2C1 [compound 6, 3-amino-N-(2,3-dihydro-1H-inden-2-yl)-6-phenylpyrazine-2-carboxamide] | > 10 µM |
| NC(=O)c1nc(-c2ccccc2Cl)cnc1N [compound 7, 3-amino-6-(2-chlorophenyl)pyrazine-2-carboxamide] | > 10 µM |
| Nc1ncc(-c2ccccc2)nc1C(=O)NC1CCCC1 [compound 8, 3-amino-N-cyclopentyl-6-phenylpyrazine-2-carboxamide] | > 10 µM |
| CN(C)C(=O)c1nc(-c2ccccc2)cnc1N [compound 9, 3-amino-N,N-dimethyl-6-phenylpyrazine-2-carboxamide] | 1 to 10 µM |
| COc1cccc(-c2cnc(N)c(C(N)=O)n2)c1 [compound 10, 3-amino-6-[3-(methyloxy)phenyl]pyrazine-2-carboxamide] | 1 to 10 µM |
| Nc1ncc(-c2ccccc2)nc1C(=O)N1CCCC1 [compound 11, 5-phenyl-3-(pyrrolidin-1-ylcarbonyl)pyrazin-2-amine] | > 10 µM |
| Nc1ncc(-c2ccccc2)nc1C(=O)NCC1CC1 [compound 12, 3-amino-N-(cyclopropylmethyl)-6-phenylpyrazine-2-carboxamide] | > 10 µM |
| Nc1ncc(-c2ccccc2)nc1C(=O)NCC1CCCO1 (centres unmarked) [compound 13, 3-amino-6-phenyl-N-(tetrahydrofuran-2-ylmethyl)pyrazine-2-carboxamide] | > 10 µM |
| CCCNC(=O)c1nc(-c2ccccc2)cnc1NCCC [compound 15, 6-phenyl-N-propyl-3-(propylamino)pyrazine-2-carboxamide] | > 10 µM |
| Cc1ccccc1-c1cnc(N)c(C(N)=O)n1 [compound 16, 3-amino-6-(2-methylphenyl)pyrazine-2-carboxamide] | > 10 µM |
| Nc1ncc(-c2ccccc2)nc1C(=O)NC1CC1 [compound 20, 3-amino-N-cyclopropyl-6-phenylpyrazine-2-carboxamide] | > 10 µM |
| NC(=O)c1nc(-c2ccc(F)c(F)c2)cnc1N [compound 21, 3-amino-6-(3,4-difluorophenyl)pyrazine-2-carboxamide] | > 10 µM |
| CNC(=O)c1nc(-c2ccc(F)cc2)cnc1N [compound 22, 3-amino-6-(4-fluorophenyl)-N-methylpyrazine-2-carboxamide] | 1 to 10 µM |
| CCOc1ccc(-c2cnc(N)c(C(N)=O)n2)cc1 [compound 23, 3-amino-6-[4-(ethyloxy)phenyl]pyrazine-2-carboxamide] | 1 to 10 µM |
| CCOc1cccc(-c2cnc(N)c(C(N)=O)n2)c1 [compound 24, 3-amino-6-[3-(ethyloxy)phenyl]pyrazine-2-carboxamide] | 1 to 10 µM |
| NC(=O)c1nc(-c2ccc3c(c2)OCO3)cnc1N [compound 25, 3-amino-6-(1,3-benzodioxol-5-yl)pyrazine-2-carboxamide] | > 10 µM |
| NC(=O)c1nc(-c2cccc3ccccc23)cnc1N [compound 26, 3-amino-6-naphthalen-1-ylpyrazine-2-carboxamide] | > 10 µM |
| NC(=O)c1nc(-c2cccc(OC(F)(F)F)c2)cnc1N [compound 28, 3-amino-6-{3-[(trifluoromethyl)oxy]phenyl}pyrazine-2-carboxamide] | 1 to 10 µM |
| NC(=O)c1cccc(-c2cnc(N)c(C(N)=O)n2)c1 [compound 29, 3-amino-6-[3-(aminocarbonyl)phenyl]pyrazine-2-carboxamide] | 1 to 10 µM |
| CC(=O)Nc1cccc(-c2cnc(N)c(C(N)=O)n2)c1 [compound 30, 6-[3-(acetylamino)phenyl]-3-aminopyrazine-2-carboxamide] | 1 to 10 µM |
| NC(=O)c1nc(-c2ccc(-c3ccccc3)cc2)cnc1N [compound 31, 3-amino-6-biphenyl-4-ylpyrazine-2-carboxamide] | > 10 µM |
| CN(C)c1ccc(-c2cnc(N)c(C(N)=O)n2)cc1 [compound 32, 3-amino-6-[4-(dimethylamino)phenyl]pyrazine-2-carboxamide] | 1 to 10 µM |
| Cc1cccc(-c2cnc(N)c(C(N)=O)n2)c1 [compound 33, 3-amino-6-(3-methylphenyl)pyrazine-2-carboxamide] | 1 to 10 µM |
| COC(=O)c1cccc(-c2cnc(N)c(C(N)=O)n2)c1 [compound 34, methyl 3-[5-amino-6-(aminocarbonyl)pyrazin-2-yl]benzoate] | 1 to 10 µM |

Next, values leading:

| IC50 | Structure (SMILES) |
| --- | --- |
| 0.05 to 1 µM | NC(=O)c1nc(-c2cccc(OCc3ccccc3)c2)cnc1N [compound 35, 3-amino-6-{3-[(phenylmethyl)oxy]phenyl}pyrazine-2-carboxamide] |
| 0.05 to 1 µM | NC(=O)c1nc(-c2cccc(O)c2)cnc1N [compound 36, 3-amino-6-(3-hydroxyphenyl)pyrazine-2-carboxamide] |
| > 10 µM | NC(=O)c1nc(-c2cc3ccccc3o2)cnc1N [compound 37, 3-amino-6-(1-benzofuran-2-yl)pyrazine-2-carboxamide] |
| > 10 µM | CNc1ncc(-c2ccccc2)nc1C(N)=O [compound 38, 3-(methylamino)-6-phenylpyrazine-2-carboxamide] |
| 0.05 to 1 µM | NC(=O)c1nc(-c2cccc(-c3ccccc3)c2)cnc1N [compound 41, 3-amino-6-biphenyl-3-ylpyrazine-2-carboxamide] |
| > 10 µM | NC(=O)c1nc(-c2cccc(C(=O)O)c2)cnc1N [compound 42, 3-[5-amino-6-(aminocarbonyl)pyrazin-2-yl]benzoic acid] |
| > 10 µM | NC(=O)c1nc(-c2ccc(OCc3ccccc3)cc2)cnc1N [compound 43, 3-amino-6-{4-[(phenylmethyl)oxy]phenyl}pyrazine-2-carboxamide] |
| 1 to 10 µM | CNC(=O)c1nc(-c2cccc(OCc3ccccc3)c2)cnc1N [compound 44, 3-amino-N-methyl-6-{3-[(phenylmethyl)oxy]phenyl}pyrazine-2-carboxamide] |
| 0.05 to 1 µM | CNC(=O)c1nc(-c2cccc(O)c2)cnc1N [compound 45, 3-amino-6-(3-hydroxyphenyl)-N-methylpyrazine-2-carboxamide] |
| 1 to 10 µM | COCCNC(=O)c1nc(-c2ccccc2)cnc1N [compound 46, 3-amino-N-[2-(methyloxy)ethyl]-6-phenylpyrazine-2-carboxamide] |
| > 10 µM | CC(=O)NCCNC(=O)c1nc(-c2ccccc2)cnc1N [compound 47, N-[2-(acetylamino)ethyl]-3-amino-6-phenylpyrazine-2-carboxamide] |
| 1 to 10 µM | NNC(=O)c1nc(-c2ccccc2)cnc1N [compound 48, 3-amino-6-phenylpyrazine-2-carbohydrazide] |
| 1 to 10 µM | Nc1ncc(-c2ccccc2)nc1C(=O)NO [compound 49, 3-amino-N-hydroxy-6-phenylpyrazine-2-carboxamide] |
| 1 to 10 µM | CCOc1cccc(-c2cnc(N)c(C(=O)NC)n2)c1 [compound 50, 3-amino-6-[3-(ethyloxy)phenyl]-N-methylpyrazine-2-carboxamide] |
| 1 to 10 µM | CCOc1ccc(-c2cnc(N)c(C(=O)NC)n2)cc1 [compound 52, 3-amino-6-[4-(ethyloxy)phenyl]-N-methylpyrazine-2-carboxamide] |
| 0.05 to 1 µM | CNC(=O)c1nc(-c2cccc(C)c2)cnc1N [compound 53, 3-amino-N-methyl-6-(3-methylphenyl)pyrazine-2-carboxamide] |
